Earlier results in US9005898B2, “Method for controlling hair growth, method for selecting or evaluating hair growth control agent, and hair growth suppression agent” (Kao Corporation, priority 2010, dated 2015).

Tested on: human hair follicle
Details: in a dose-dependent manner; Patent Document 7

SMILES: O=CN1CC/C(=C\c2ccc3c(c2)OCO3)C1=O [KNK437]
- growth of the human hair follicle: reduced
